# PubChem BioAssay (NCI)
#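 Dose response: 5 concentrations. Exposure: 48 h. Format: 96-well plates. Endpoint: linear interpolation; highest concentration if not reached. GI50 marks 50% less growth. TGI marks complete inhibition of growth.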
# Test system: SF-539 CNS
# Experiment: inhibition of tumour cell growth, NCI panel, 48 h
Compound,TGI [µM],GI50 [µM]
O=C(/C=C/c1c(O)ccc2ccccc12)c1ccc2ccccc2c1,> 100,–
CCOC(=O)C1N(S(=O)(=O)c2ccc(C)cc2)CCC12C(c1ccc(OC)cc1)NC1CCCCC12 (centres undefined),> 100,–
COc1ccccc1NC(=O)C1=C(C)NC(C)=C(C(=O)Nc2ccccc2OC)C1c1ccc([N+](=O)[O-])cc1,> 100,–
Nc1nc(Nc2ccccc2)c2ncn(Cc3cc4c(cc3Br)OCO4)c2n1,0.51,0.0394
O=C(CSc1nnc(-c2ccccc2NC(=O)C(F)(F)F)c(=O)[nH]1)NC(=O)Nc1ccccc1,> 100,–
COC(=O)/C=C/C1C(C(=O)OC)C2(C(=O)OC)CCC1(C(=O)OC)N2 (centres undefined),> 100,–
CC(C)(C)N1CC2(CCCCC2)C1=O,> 100,–
COc1ccc(-c2cc(-c3cccn3C)c(C#N)c(N)n2)cc1OC,> 100,82.4
C#CC(=O)Nc1cccc(Nc2nc3c(c(NCc4ccccc4)n2)CCCC3)c1,< 0.01,< 0.01
COc1ccc(C(=O)C(CO)Oc2ccccc2OC)cc1OC (centres undefined),> 100,–
N#CC(/C(=N/NC(=O)C(=O)NN)C(=O)NC12CC3CC(CC(C3)C1)C2)c1ccccc1 (centres undefined),> 100,–
CN=NN(C)C(=O)NC,> 100,–
Nc1c(C(=O)N/N=C/c2ccc(-c3ccc(Cl)cc3)o2)cnn1-c1ccnc2c(C(F)(F)F)cccc12,> 100,> 100
c1ccc2c3ccn4cc5c(cc4c-3nc2c1)CCCC5,17.1,3.4
CCCCCCCCCc1cc(=O)c2c(O)cccc2o1,> 100,–
CCOC(=O)CCc1c(C)c2c(OC(C)=O)cc(OC(C)=O)cc2oc1=O,> 100,–
O=C(CN1CCCCC1)N1CCc2c([nH]c3ccccc23)C1c1cccnc1 (centres undefined),> 100,–
COC(=O)C12C3C4C5(C(=O)OC)C(C1C35C(=O)N(C(C)C)C(C)C)C42C(=O)N(C(C)C)C(C)C (centres undefined),> 50,–
COc1ccc(C2C(C#N)=C(N)OC3=C2COc2ccc(F)cc23)cc1OC (centres undefined),75.4,21.5
Cc1cc(C)n(CCNCCn2nc(C)cc2C)n1,> 100,–
O=C1CSC(Cc2nc3ccccc3[nH]2)=N1,43.1,–
O=C(/C=C/c1ccccc1)/C=C/c1ccccc1,45,–
N#C/C(=C\c1ccc(O)c(O)c1)C(N)=O,> 100,–
N#CC(C(=O)/C(=N/Nc1nc(=S)[nH]n1N)C(C#N)c1ccccc1)c1ccccc1 (centres undefined),> 100,–
O=C(O)c1ccccc1-c1ccccc1C(=O)Nc1ccc2c(c1)Cc1cc(F)ccc1-2,> 100,–
N#CC(C#N)=c1[nH]c2cccc3c2-c2c(cccc2c3=C(C#N)C#N)[nH]1,> 100,–

# Test system: HCT-15 colon
# Experiment: inhibition of tumour cell growth, NCI panel, 48 h
Compound,TGI [µM],GI50 [µM]
O=S(O)CCCCSSCc1ccccc1CSSCCCCS(=O)O,> 100,–
O=C(O)Cc1c(O)ccc2ccccc12,> 100,–
CCOC(=O)c1[nH]c(COC(C)=O)c(CCCOC(C)=O)c1CCCOC(C)=O,> 100,–
CSC1(CC(=O)N(C)C)C(=O)Nc2ccccc21 (centres undefined),> 100,–
C#C[C@]1(O)CC[C@H]2[C@@H]3CC=C4c5sc(Nc6ccccc6)nc5CC[C@]4(C)[C@H]3CC[C@@]21C,6.47,1.69
COc1ccc(/C=c2/sc3n(c2=O)C(c2ccc(OC)c(OC)c2)C2=C(N=3)c3cc(F)ccc3OC2)cc1 (centres undefined),> 83,22.2
O=C(Nc1ccc([N+](=O)[O-])cc1)C1C(=O)C(=O)N(c2ccc([N+](=O)[O-])cc2)C1=O (centres undefined),> 100,–
Cc1cn2c(/C=C3/C(=O)Nc4ccccc43)c(-c3ccc(Cl)cc3)nc2s1,13.4,6.93
O=C(/C=C/c1c(O)ccc2ccccc12)c1ccc2ccccc2c1,> 100,–
CCOC(=O)C1N(S(=O)(=O)c2ccc(C)cc2)CCC12C(c1ccc(OC)cc1)NC1CCCCC12 (centres undefined),> 100,–
COc1ccccc1NC(=O)C1=C(C)NC(C)=C(C(=O)Nc2ccccc2OC)C1c1ccc([N+](=O)[O-])cc1,> 100,–
Nc1nc(Nc2ccccc2)c2ncn(Cc3cc4c(cc3Br)OCO4)c2n1,5.48,0.0416
O=C(CSc1nnc(-c2ccccc2NC(=O)C(F)(F)F)c(=O)[nH]1)NC(=O)Nc1ccccc1,> 100,–
COC(=O)/C=C/C1C(C(=O)OC)C2(C(=O)OC)CCC1(C(=O)OC)N2 (centres undefined),> 100,–
CC(C)(C)N1CC2(CCCCC2)C1=O,> 100,–
COc1ccc(-c2cc(-c3cccn3C)c(C#N)c(N)n2)cc1OC,> 100,> 100
C#CC(=O)Nc1cccc(Nc2nc3c(c(NCc4ccccc4)n2)CCCC3)c1,1.14,0.231
COc1ccc(C(=O)C(CO)Oc2ccccc2OC)cc1OC (centres undefined),> 100,–

Compound,TGI [µM],GI50 [µM]
N#CC(/C(=N/NC(=O)C(=O)NN)C(=O)NC12CC3CC(CC(C3)C1)C2)c1ccccc1 (centres undefined),> 100,–
CN=NN(C)C(=O)NC,> 100,–
Nc1c(C(=O)N/N=C/c2ccc(-c3ccc(Cl)cc3)o2)cnn1-c1ccnc2c(C(F)(F)F)cccc12,> 100,> 100
c1ccc2c3ccn4cc5c(cc4c-3nc2c1)CCCC5,> 100,24.1
CCCCCCCCCc1cc(=O)c2c(O)cccc2o1,> 100,–
O=C(CN1CCCCC1)N1CCc2c([nH]c3ccccc23)C1c1cccnc1 (centres undefined),> 100,–
COC(=O)C12C3C4C5(C(=O)OC)C(C1C35C(=O)N(C(C)C)C(C)C)C42C(=O)N(C(C)C)C(C)C (centres undefined),> 33.7,–
COc1ccc(C2C(C#N)=C(N)OC3=C2COc2ccc(F)cc23)cc1OC (centres undefined),76.5,18.8
Cc1cc(C)n(CCNCCn2nc(C)cc2C)n1,> 1,–
O=C1CSC(Cc2nc3ccccc3[nH]2)=N1,37.7,–
O=C(/C=C/c1ccccc1)/C=C/c1ccccc1,70.5,–
N#C/C(=C\c1ccc(O)c(O)c1)C(N)=O,> 100,–
CCOC(=O)C1=C(C)N(N)C(=S)NC1c1ccc(C)cc1 (centres undefined),> 100,9.1
N#CC(C(=O)/C(=N/Nc1nc(=S)[nH]n1N)C(C#N)c1ccccc1)c1ccccc1 (centres undefined),> 100,–
O=C(O)c1ccccc1-c1ccccc1C(=O)Nc1ccc2c(c1)Cc1cc(F)ccc1-2,38,–
CN(C)Cc1c[nH]c2c1C(=O)c1c(c(O)c3ccccc3c1O)C2=O,16.2,5.02
N#CC(C#N)=c1[nH]c2cccc3c2-c2c(cccc2c3=C(C#N)C#N)[nH]1,> 100,–

# Test system: HCT-116 colon
# Experiment: inhibition of tumour cell growth, NCI panel, 48 h
Compound,GI50 [µM],TGI [µM]
CC(=O)Oc1ccccc1C(=O)N=C1[Se]CCN1C(=O)c1ccccc1OC(C)=O,0.32,1.15
O=C(O)Cc1c(O)ccc2ccccc12,–,> 100
CCOC(=O)c1[nH]c(COC(C)=O)c(CCCOC(C)=O)c1CCCOC(C)=O,–,> 100
CSC1(CC(=O)N(C)C)C(=O)Nc2ccccc21 (centres undefined),–,> 100
COc1ccc(/C=c2/sc3n(c2=O)C(c2ccc(OC)c(OC)c2)C2=C(N=3)c3cc(F)ccc3OC2)cc1 (centres undefined),17.4,> 100
O=C(Nc1ccc([N+](=O)[O-])cc1)C1C(=O)C(=O)N(c2ccc([N+](=O)[O-])cc2)C1=O (centres undefined),–,> 100
O=C(CCC/C(CC(=O)c1ccc(Br)cc1)=N\O)Nc1ccccc1,–,> 100
O=C(/C=C/c1c(O)ccc2ccccc12)c1ccc2ccccc2c1,–,> 100
CCOC(=O)C1N(S(=O)(=O)c2ccc(C)cc2)CCC12C(c1ccc(OC)cc1)NC1CCCCC12 (centres undefined),–,> 100
COc1ccccc1NC(=O)C1=C(C)NC(C)=C(C(=O)Nc2ccccc2OC)C1c1ccc([N+](=O)[O-])cc1,–,> 100
Nc1nc(Nc2ccccc2)c2ncn(Cc3cc4c(cc3Br)OCO4)c2n1,0.046,24.9
O=C(CSc1nnc(-c2ccccc2NC(=O)C(F)(F)F)c(=O)[nH]1)NC(=O)Nc1ccccc1,–,> 100
O=C1c2ccn(CCCCNC(CO)(CO)CO)c2C(=O)c2c1c(O)c1ccccc1c2O,0.436,0.857
COC(=O)/C=C/C1C(C(=O)OC)C2(C(=O)OC)CCC1(C(=O)OC)N2 (centres undefined),–,> 100
CC(C)(C)N1CC2(CCCCC2)C1=O,–,> 100
COc1ccc(-c2cc(-c3cccn3C)c(C#N)c(N)n2)cc1OC,91.1,> 100
C#CC(=O)Nc1cccc(Nc2nc3c(c(NCc4ccccc4)n2)CCCC3)c1,0.12,0.291
COc1ccc(C(=O)C(CO)Oc2ccccc2OC)cc1OC (centres undefined),–,> 100
N#CC(/C(=N/NC(=O)C(=O)NN)C(=O)NC12CC3CC(CC(C3)C1)C2)c1ccccc1 (centres undefined),–,> 100
CC(C)(C)C(=O)/C=C/c1ccc(Oc2ccccc2)cc1,–,34.7
CN=NN(C)C(=O)NC,–,> 100
Nc1c(C(=O)N/N=C/c2ccc(-c3ccc(Cl)cc3)o2)cnn1-c1ccnc2c(C(F)(F)F)cccc12,> 100,> 100
c1ccc2c3ccn4cc5c(cc4c-3nc2c1)CCCC5,2.72,8.94
